Experimental data taken from the NIST ThermoML archive (doi:10.1016/j.jct.2013.11.005).
Numbers after ± are expanded uncertainties.

Conditions: for viscosity / mass density: 101.33 kPa, Liquid; for viscosity: Falling or rolling sphere viscometry; for mass density: Vibrating tube method; for surface tension liquid-gas: Pendant drop shape

| viscosity (293.15 K) | mass density (293.15 K) | surface tension liquid-gas (298.15 K) | viscosity (298.15 K) | mass density (298.15 K) | surface tension liquid-gas (303.15 K) | viscosity (303.15 K) | mass density (303.15 K) | surface tension liquid-gas (313.15 K) | viscosity (313.15 K) | mass density (313.15 K) | surface tension liquid-gas (323.15 K) | viscosity (323.15 K) | mass density (323.15 K) | viscosity (333.15 K) | mass density (333.15 K) | viscosity (343.15 K) | mass density (343.15 K) | viscosity (353.15 K) | mass density (353.15 K) | SMILES |
| --- | --- | --- | --- | --- | --- | --- | --- | --- | --- | --- | --- | --- | --- | --- | --- | --- | --- | --- | --- | --- |
| 76.08 ± 2 mPa·s | 1073.99 ± 0.99 kg/m3 | 47 ± 0.7 mN/m | 59.81 ± 1.4 mPa·s | 1071.04 ± 0.98 kg/m3 | 46.6 ± 0.7 mN/m | 47.84 ± 1.1 mPa·s | 1068.08 ± 0.98 kg/m3 | 45.7 ± 0.7 mN/m | 32.2 ± 0.77 mPa·s | 1062.21 ± 0.97 kg/m3 | 44.8 ± 0.7 mN/m | 22.97 ± 0.54 mPa·s | 1056.39 ± 0.95 kg/m3 | 17.12 ± 0.4 mPa·s | 1050.61 ± 0.94 kg/m3 | 13.2 ± 0.31 mPa·s | 1044.87 ± 0.93 kg/m3 | 10.5 ± 0.25 mPa·s | 1039.17 ± 0.92 kg/m3 | CCCCn1cc[n+](C)c1.N#C[S-] [1-butyl-3-methylimidazolium thiocyanate] |
| 28.27 ± 0.67 mPa·s | 1120.02 ± 1.1 kg/m3 | 54.1 ± 0.8 mN/m | 23.79 ± 0.56 mPa·s | 1116.97 ± 1.1 kg/m3 | 53.6 ± 0.8 mN/m | 20.25 ± 0.48 mPa·s | 1113.91 ± 1.1 kg/m3 | 52.9 ± 0.8 mN/m | 15.13 ± 0.36 mPa·s | 1107.95 ± 1.1 kg/m3 | 52.1 ± 0.8 mN/m | 11.73 ± 0.28 mPa·s | 1101.84 ± 1.1 kg/m3 | 9.36 ± 0.22 mPa·s | 1095.89 ± 1 kg/m3 | 7.65 ± 0.18 mPa·s | 1089.98 ± 1 kg/m3 | 6.38 ± 0.15 mPa·s | 1084.12 ± 1 kg/m3 | CCn1cc[n+](C)c1.N#C[S-] [1-ethyl-3-methylimidazolium thiocyanate] |
